Converted amounts (≈) assume the structure as drawn.
Legend:
P388 [1] = experiment: (§1) Compound at a optimum dose level of 0.5 mg/kg was evaluated in vivo against Murine P388/0 […] cells (1 X 10E6 ip implant); assay type: functional, Mus musculus; conditions: route intraperitoneal
L1210 [2] = experiment: cells; conditions: Mus musculus
P388 [3] = experiment: Compound at a optimum dose level of 2 mg/kg was evaluated in vivo against Murine P388/MTX resistant cells (1 X 10E6 ip implant); assay type: functional, Mus musculus; conditions: route intraperitoneal
P388 [4] = experiment: as §1; assay type: organism-based; parameters: dose 0.5 mg/kg, route intraperitoneal; conditions: mouse
Dihydrofolate reductase = molecular target: T1, Dihydrofolate reductase (Mus musculus, UniProt P00375); experiment: Compound was evaluated for inhibitory effect on dihydrofolate reductase (DHFR) from L1210 cells at Inhibitory constant (n=3); assay type: cell-based
T1 sequence (P00375 whole entry): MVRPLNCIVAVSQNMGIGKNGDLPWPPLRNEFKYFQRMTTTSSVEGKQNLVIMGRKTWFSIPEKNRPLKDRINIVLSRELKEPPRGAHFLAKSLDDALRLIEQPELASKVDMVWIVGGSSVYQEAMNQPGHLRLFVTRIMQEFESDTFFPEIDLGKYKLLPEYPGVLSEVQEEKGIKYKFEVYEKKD

L1210 [5] = experiment: Compound was evaluated for the efflux (K) mediated transport with respect to L1210 cells; assay type: functional, cell-based; conditions: Mus musculus
L1210 [6] = experiment: Compound was evaluated for rate of anabolism to polyglutamate accumulation in L1210 cells; assay type: functional, Mus musculus
L1210 [7] = experiment: Compound was evaluated for the influx (Km) mediated transport with respect to L1210 cells; assay type: functional, cell-based; conditions: Mus musculus
P388 [8] = experiment: Compound at a optimum dose level of 0.5 mg/kg was evaluated in vivo against Murine P388/MTX resistant cells (1 X 10E6 ip implant); assay type: functional, Mus musculus; conditions: route intraperitoneal
L1210 [9] = experiment: Compound was evaluated for the influx (Km) mediated transport with respect to L1210 cells.; assay type: functional, cell-based; conditions: Mus musculus
Enterococcus faecium [10] = experiment: Compound was evaluated for inhibitory effect on growth of Streptococcus faecium ATCC 8043; assay type: functional, organism-based
Lacticaseibacillus casei [11] = experiment: Compound was evaluated for inhibitory effect on growth of Lactobacillus casei MTX resistant; assay type: functional, organism-based
Lacticaseibacillus casei [12] = experiment: Compound was evaluated for inhibitory effect on growth of Lactobacillus casei ATCC 7469; assay type: functional, organism-based
Enterococcus faecium [13] = experiment: Compound was evaluated for inhibitory effect on growth of Streptococcus faecium MTX resistant; assay type: functional, organism-based
Thymidylate synthase [14] = molecular target: T2, Thymidylate synthase (Lactobacillus casei, UniProt P00469); experiment: (§2) Compound was evaluated for inhibitory effect on the thymidylate synthase (TS) of Lactobacillus casei; parameters: species or system Lacticaseibacillus casei
T2 sequence (P00469 whole entry): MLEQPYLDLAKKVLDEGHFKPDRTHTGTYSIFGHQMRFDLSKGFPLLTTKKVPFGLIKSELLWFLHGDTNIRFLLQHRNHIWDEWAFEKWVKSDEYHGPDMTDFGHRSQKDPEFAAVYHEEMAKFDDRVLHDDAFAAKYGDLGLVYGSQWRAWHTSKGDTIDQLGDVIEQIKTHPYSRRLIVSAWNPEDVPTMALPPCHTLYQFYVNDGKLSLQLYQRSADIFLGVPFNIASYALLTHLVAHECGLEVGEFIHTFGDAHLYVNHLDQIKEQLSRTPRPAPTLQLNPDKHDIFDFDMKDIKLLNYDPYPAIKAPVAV

Thymidylate synthase [15] = molecular target: T2, Thymidylate synthase; experiment: as §2; assay type: functional, Lacticaseibacillus casei
[16] = Lacticaseibacillus casei, read-out: IC50

SMILES | Survival time (P388 [1]) [days] | IC50 (L1210 [2]) [nM] | Survival time (P388 [3]) [days] | T/C (P388 [4]) [%] | Ki (Dihydrofolate reductase) [nM] | K (L1210 [5]) [min⁻¹] | Rate (L1210 [6]) | Km (L1210 [7]) [µM] | IC50 (Enterococcus faecium [10]) [ng/mL] | IC50 (Enterococcus faecium [13]) [ng/mL] | other results
Nc1nc(N)c2cc(CNc3ccc(C(=O)NC(CCC(=O)O)C(=O)O)cc3)cnc2n1 (stereo not given) | 15.8 | 0.63 | 21.8 | 146 | 0.00365 | 0.3 | 84.2 pM min-1 (g dry weight)-1 | 1.1 |  |  | 
CCOC(=O)CCC(NC(=O)c1ccc(NCc2cnc3nc(N)nc(N)c3c2)cc1)C(=O)OCC (stereo not given) | 16.2 |  | 20.8 | 151 |  |  |  |  |  |  | 
Nc1nc(N)c2nc(CNc3ccc(C(=O)N[C@@H](CCC(=O)O)C(=O)O)cc3)cnc2n1 [AMINOPTERIN] |  |  |  |  | 0.00355 | 0.31 | 165 pM min-1 (g dry weight)-1 | 1.2 |  |  | 
Cc1c(CNc2ccc(C(=O)NC(CCC(=O)O)C(=O)O)cc2)cnc2nc(N)nc(N)c12 (stereo not given) | 16.4 | 0.13 |  | 151 | 0.00293 | 0.26 | 98.3 pM min-1 (g dry weight)-1 | 1.2 |  |  | Survival time (P388 [8]): 20.8 days
CN(Cc1cnc2nc(N)nc(N)c2c1)c1ccc(C(=O)NC(CCC(=O)O)C(=O)O)cc1 (stereo not given) | 18 | 2.85 | 20.3 | 166 | 0.00526 | 0.28 | 48.8 pM min-1 (g dry weight)-1 |  |  |  | Km (L1210 [9]): 4 µM
Cc1c(CN(C)c2ccc(C(=O)NC(CCC(=O)O)C(=O)O)cc2)cnc2nc(N)nc(N)c12 (stereo not given) | 19.7 | 0.24 | 20.8 | 182 | 0.00212 | 0.31 | 42.9 pM min-1 (g dry weight)-1 | 3.2 |  |  | 
Cc1c(CN(C)c2ccc(C(=O)NC(CCC(=O)O)C(=O)O)cc2)cnc2nc(N)nc(O)c12 (stereo not given) |  |  |  |  |  |  |  |  | 30 (≈ 0.064 µM) | > 10000 | IC50 (Lacticaseibacillus casei [11]; [16]): > 10000 ng/mL; IC50 (Lacticaseibacillus casei [12]): 4.6 ng/mL (≈ 0.00982 µM); IC50 (Thymidylate synthase [14]): 2.77 nM
CCN(Cc1cnc2nc(N)nc(N)c2c1C)c1ccc(C(=O)NC(CCC(=O)O)C(=O)O)cc1 (stereo not given) |  | 0.26 |  |  | 0.00264 | 0.29 |  | 3.3 |  |  | 
CN(Cc1cnc2nc(N)nc(N)c2n1)c1ccc(C(=O)N[C@@H](CCC(=O)O)C(=O)O)cc1 [METHOTREXATE] | 19.7 |  | 20.3 | 182 |  | 0.33 |  | 3.3 | 0.26 (≈ 0.000572 µM) | 3000 (≈ 6.6 µM) | IC50 (Lacticaseibacillus casei [11]): > 500000 ng/mL
Cc1c(CNc2ccc(C(=O)NC(CCC(=O)O)C(=O)O)cc2)cnc2nc(N)nc(O)c12 (stereo not given) |  |  |  |  |  |  |  |  | 380 (≈ 0.836 µM) | > 10000 | IC50 (Lacticaseibacillus casei [11]; [16]): > 10000 ng/mL; IC50 (Lacticaseibacillus casei [12]): 0.57 ng/mL (≈ 0.00125 µM)
Nc1nc(O)c2cc(CNc3ccc(C(=O)NC(CCC(=O)O)C(=O)O)cc3)cnc2n1 (stereo not given) |  |  |  |  |  |  |  |  | 0.09 (≈ 0.000204 µM) | 49 (≈ 0.111 µM) | IC50 (Lacticaseibacillus casei [11]; [16]): 3500 ng/mL (≈ 7.95 µM); IC50 (Thymidylate synthase [15]): 1700 nM; IC50 (Lacticaseibacillus casei [12]): 0.054 ng/mL (≈ 0.000123 µM)

Reference: ChEMBL document CHEMBL1123527 (J Med Chem, 1986)
